Test results taken from ChEMBL document CHEMBL1201862, “PubChem BioAssay data set” (2004).
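Growth conditions: 96-well plates. Treatment: test compound, 48 hours, 5 concentrations. Analysis: linear interpolation between bracketing concentrations; unreached endpoints set to highest concentration. At the GI50, growth is halved.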 The source made the active and inactive calls. No stated cut-off is given here; in the data, active = GI50 up to about 1.1 µM and inactive = higher.

Tests used:
Assay in all cases: growth of human tumour cells (NCI), 48 h
ACHN = system: ACHN
CAKI-1 = system: CAKI-1
HL-60 = system: HL-60
HOP-92 = system: HOP-92
IGROV-1 = system: IGROV-1
K562 = system: K562
NCI-H522 = system: NCI-H522
OVCAR-8 = system: OVCAR-8
SF-268 = system: SF-268
SF-539 = system: SF-539
SN12C = system: SN12C
SNB-19 = system: SNB-19
UO-31 = system: UO-31
HCC 2998 = system: HCC 2998
HOP-62 = system: HOP-62
OVCAR-4 = system: OVCAR-4
OVCAR-5 = system: OVCAR-5
HCT-116 = system: HCT-116

Measured: GI50

c1ccc2c(c1)nc1n2CSC1
inactive: ACHN > 100 µM | CAKI-1 > 100 µM | HL-60 > 100 µM | HOP-92 24 µM | IGROV-1 > 100 µM | K562 > 100 µM | NCI-H522 > 100 µM | OVCAR-8 > 100 µM | SF-268 > 100 µM | SF-539 > 100 µM | SN12C > 100 µM | SNB-19 > 100 µM | UO-31 > 100 µM

O=C(CC1(O)C(=O)Nc2c(Cl)cc(Cl)cc21)c1ccco1 (centres undefined)
inactive: ACHN 83.6 µM | CAKI-1 45 µM | HCC 2998 48.8 µM | HL-60 20.8 µM | HOP-62 60.1 µM | HOP-92 36.6 µM | K562 30.3 µM | NCI-H522 62.5 µM | OVCAR-4 15.7 µM | OVCAR-5 > 100 µM | OVCAR-8 37.4 µM | SF-268 50 µM | SN12C 63.8 µM | SNB-19 > 100 µM | UO-31 98.2 µM

COc1cc(C2C(C(=O)Nc3ccccc3C)=C(C)NC(C)=C2C(=O)Nc2ccccc2C)ccc1O
inactive: ACHN > 100 µM | CAKI-1 > 100 µM | HCC 2998 > 100 µM | HCT-116 > 100 µM | HL-60 60.4 µM | HOP-62 > 100 µM | HOP-92 > 100 µM | IGROV-1 > 100 µM | K562 > 100 µM | NCI-H522 > 100 µM | OVCAR-4 > 100 µM | OVCAR-5 > 100 µM | OVCAR-8 > 100 µM | SF-539 > 100 µM | SN12C > 100 µM | SNB-19 > 100 µM | UO-31 > 100 µM

NC(CCCCNCc1ccccc1)C(=O)O (centres undefined)
inactive: ACHN > 100 µM | CAKI-1 > 100 µM | HCC 2998 > 100 µM | HCT-116 > 100 µM | HL-60 > 100 µM | HOP-62 > 100 µM | HOP-92 > 100 µM | IGROV-1 > 100 µM | K562 > 100 µM | NCI-H522 > 100 µM | OVCAR-4 > 100 µM | OVCAR-5 > 100 µM | OVCAR-8 > 100 µM | SF-268 > 100 µM | SF-539 > 100 µM | SN12C > 100 µM | SNB-19 > 100 µM | UO-31 > 100 µM

CN(C)CCNC(=O)c1cccc2c1nc(-c1cccnc1)c1ccccc12
inactive: ACHN 2.58 µM | CAKI-1 2.45 µM | HCC 2998 6.9 µM | HCT-116 2.95 µM | HL-60 1.97 µM | HOP-62 6.24 µM | HOP-92 5.31 µM | IGROV-1 1.73 µM | K562 5.98 µM | OVCAR-4 4.91 µM | OVCAR-5 8.83 µM | OVCAR-8 4.81 µM | SF-268 6.05 µM | SF-539 2.65 µM | SN12C 3.3 µM | SNB-19 7.05 µM | UO-31 2.69 µM

Cn1c2ccccc2c2ccc3c(c21)C(=O)C(c1ccccc1)=CC3=O
inactive: ACHN 54.2 µM | CAKI-1 49.9 µM | HCC 2998 24.5 µM | HCT-116 14.5 µM | HL-60 14.4 µM | HOP-62 13.4 µM | HOP-92 15.7 µM | IGROV-1 13.4 µM | K562 4.75 µM | NCI-H522 19.2 µM | OVCAR-5 > 100 µM | OVCAR-8 14.9 µM | SF-268 36 µM | SF-539 24.2 µM | SN12C 17.3 µM | SNB-19 42.5 µM | UO-31 31.1 µM

CC1C(/C=C/c2ccoc2)ON2CCCC12 (centres undefined)
inactive: ACHN > 100 µM | CAKI-1 > 100 µM | HCC 2998 > 100 µM | HL-60 > 100 µM | HOP-62 > 10 µM | HOP-92 17.8 µM | NCI-H522 > 100 µM | OVCAR-4 > 100 µM | OVCAR-5 > 100 µM | OVCAR-8 > 100 µM | SF-268 > 100 µM | SF-539 > 100 µM | SN12C > 100 µM | SNB-19 > 100 µM | UO-31 > 100 µM

CCCCCCCCCCCC(=O)C1=C(O)CCC(O)C1=O (centres undefined)
inactive: ACHN 19.4 µM | CAKI-1 23 µM | HCC 2998 22 µM | HCT-116 21.3 µM | HL-60 13.5 µM | HOP-62 15.2 µM | HOP-92 17.7 µM | IGROV-1 19.9 µM | K562 7.6 µM | NCI-H522 12.1 µM | OVCAR-4 18.5 µM | OVCAR-5 27.7 µM | OVCAR-8 10.1 µM | SF-268 27.2 µM | SF-539 19.1 µM | SN12C 21.8 µM | SNB-19 9.08 µM | UO-31 19.7 µM

CN1c2ccccc2N(C(=O)c2ccc([N+](=O)[O-])cc2)C(CC(=O)O)c2cccn21 (centres undefined)
inactive: ACHN > 100 µM | CAKI-1 > 100 µM | HCC 2998 > 100 µM | HL-60 > 100 µM | HOP-62 > 100 µM | HOP-92 > 100 µM | IGROV-1 > 100 µM | K562 > 100 µM | NCI-H522 > 100 µM | OVCAR-4 > 100 µM | OVCAR-5 > 100 µM | OVCAR-8 > 100 µM | SF-268 > 100 µM | SF-539 > 100 µM | SN12C > 100 µM | SNB-19 > 100 µM | UO-31 > 100 µM

COC(=O)N1C=Cc2c(c(C)c3c([nH]c4ccccc43)c2C)C1C (centres undefined)
inactive: ACHN > 10 µM | CAKI-1 18.1 µM | HCC 2998 16.8 µM | HCT-116 12.9 µM | HL-60 19.2 µM | HOP-62 18.2 µM | HOP-92 20.1 µM | IGROV-1 25.2 µM | K562 6.19 µM | OVCAR-4 12.3 µM | OVCAR-5 17.2 µM | OVCAR-8 18.3 µM | SF-268 18.2 µM | SF-539 17.1 µM | SNB-19 18 µM | UO-31 18.5 µM

COC(=O)c1s/c(=N\C(=S)N(C)C)n(-c2ccccc2)c1C(=O)OC
inactive: ACHN > 100 µM | CAKI-1 > 100 µM | HCC 2998 > 100 µM | HCT-116 > 100 µM | HL-60 32.6 µM | HOP-62 > 100 µM | HOP-92 > 100 µM | IGROV-1 > 100 µM | K562 > 100 µM | NCI-H522 > 100 µM | OVCAR-4 94 µM | OVCAR-5 > 100 µM | OVCAR-8 > 100 µM | SF-268 > 100 µM | SF-539 > 100 µM | SN12C > 100 µM | SNB-19 > 100 µM | UO-31 > 100 µM

COc1ccc(/C(Cl)=C(\C=O)c2ccc(OC)c(OC)c2)cc1
inactive: ACHN 35.3 µM | CAKI-1 74.5 µM | HL-60 8.85 µM | HOP-92 20.8 µM | IGROV-1 46.1 µM | K562 21 µM | NCI-H522 9.35 µM | OVCAR-8 65.6 µM | SF-268 30.1 µM | SF-539 23.8 µM | SN12C 81.8 µM | SNB-19 41.1 µM | UO-31 40.5 µM
